Laboratory results taken from US20100093702A1, “METHYLENE AMINES OF THIENO[2,3-d]PYRIMIDINE AND THEIR USE AS ADENOSINE A2a RECEPTOR ANTAGONISTS” (priority 2008, published 2010).

Tests used:
[1] = target: T1, human adenosine A2a receptor (Homo sapiens, UniProt P29274); assay: Adenosine A2a Receptor Functional Assay (A2AGAL2); format: cell-based; conditions: CHO-K1 cells, cAMP inducible beta-galactosidase reporter, 15 nM NECA agonist challenge
T1 construct: expressed in transfected cells; host or cells: CHO-K1
T1 sequence (P29274 whole entry): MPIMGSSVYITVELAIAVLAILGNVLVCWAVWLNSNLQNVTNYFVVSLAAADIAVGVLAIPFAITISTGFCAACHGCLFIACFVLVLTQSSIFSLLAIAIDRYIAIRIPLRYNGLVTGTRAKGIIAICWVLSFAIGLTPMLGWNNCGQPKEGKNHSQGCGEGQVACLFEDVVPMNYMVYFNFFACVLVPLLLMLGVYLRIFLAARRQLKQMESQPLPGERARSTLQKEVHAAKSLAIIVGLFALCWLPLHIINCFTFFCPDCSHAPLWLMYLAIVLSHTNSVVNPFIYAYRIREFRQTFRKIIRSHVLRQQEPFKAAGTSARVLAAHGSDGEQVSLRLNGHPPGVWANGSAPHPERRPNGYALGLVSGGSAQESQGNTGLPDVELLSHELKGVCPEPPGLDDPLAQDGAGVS
Method in brief: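 Antagonist mode in CHO-K1 cells expressing human A2a with a cAMP-inducible β-galactosidase reporter (10K cells/well, cultured 2 days). 11-point compound curves preincubated ~15 min at room temperature in Ham's F-12/0.1% BSA, then 15 nM NECA challenge, 5.5–6 h at 37 °C. Colorimetric β-gal read at 405 nm; IC/EC50 fitted.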

[2] = target: T2, human A2a adenosine receptor (Homo sapiens, UniProt P29274); assay: Ligand Binding Assay for Adenosine A2a Receptor (A2A-B); conditions: HEK293 plasma membrane, radioligand [3H]CGS21680
T2 construct: purchased PerkinElmer RB-HA2a; host or cells: HEK293
T2 sequence (P29274 whole entry): as above
Method in brief: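 [3H]CGS21680 binding to HEK293 membranes expressing human A2a receptor in 50 mM Tris-HCl pH 7.4, 10 mM MgCl2, 1 mM EDTA, 2 h at room temperature. Nonspecific binding defined with […] NECA; bound ligand collected on PEI-soaked GF/C filters and counted by scintillation.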

[3] = target: T3, human adenosine A1 receptor (Homo sapiens, UniProt P30542); assay: Adenosine A1 Receptor Functional Assay (A1GAL2); format: cell-based; conditions: CHO-K1 cells, cAMP inducible beta-galactosidase reporter, 4 nM r-PIA/1 uM Forskolin challenge
T3 construct: expressed in transfected cells; host or cells: CHO-K1
T3 sequence (P30542 1-326): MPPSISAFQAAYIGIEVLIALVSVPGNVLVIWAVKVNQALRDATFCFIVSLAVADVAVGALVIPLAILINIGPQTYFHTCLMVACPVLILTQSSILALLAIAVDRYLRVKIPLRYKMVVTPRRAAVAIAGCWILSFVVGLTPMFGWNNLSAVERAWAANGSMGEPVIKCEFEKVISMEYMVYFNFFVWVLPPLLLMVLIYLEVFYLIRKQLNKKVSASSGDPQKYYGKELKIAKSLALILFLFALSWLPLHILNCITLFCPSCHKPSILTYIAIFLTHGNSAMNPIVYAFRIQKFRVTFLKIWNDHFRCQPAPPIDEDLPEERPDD
Method in brief: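 CHO-K1 cells expressing the receptor with a cAMP-inducible β-galactosidase reporter were preincubated with compound (11-point curves) about 15 min at room temperature, then challenged with r-PIA (4 nM)/forskolin (1 µM) for 5.5–6 h at 37 °C. Lysates were read colorimetrically at 405 nm, and IC/EC50 was obtained by curve fitting.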

| Ki [1] | Ki [2] | Ki [3] | SMILES |
| --- | --- | --- | --- |
| 10.2 nM | 0.54 nM | 783 nM | Nc1nc(-c2ccc(Cl)o2)nc2sc(CN3CC=CC3)cc12 [Example 97, 2-(5-Chloro-furan-2-yl)-6-(2,5-dihydro-pyrrol-1-ylmethyl)-thieno[2,3-d]pyrimidin-4-ylamine] |
| 8.85 nM | 20.3 nM | 158 nM | Nc1nc(-c2ccco2)nc2sc(CN3CC=CCC3)cc12 [Example 98, 6-(3,6-Dihydro-2H-pyridin-1-ylmethyl)-2-furan-2-yl-thieno[2,3-d]pyrimidin-4-ylamine] |
| 123 nM | 934 nM | 876 nM | Nc1nc(-c2ccnc(Cl)c2)nc2sc(CN3CCOCC3)cc12 [Example 105, 2-(2-Chloro-pyridin-4-yl)-6-morpholin-4-ylmethyl-thieno[2,3-d]pyrimidin-4-ylamine] |
| 30.5 nM | 66.1 nM | 2700 nM | Nc1nc(-c2ccc(C(F)F)o2)nc2sc(CN3CCOCC3)cc12 [Example 107, 2-(5-Difluoromethyl-furan-2-yl)-6-morpholin-4-ylmethyl-thieno[2,3-d]pyrimidin-4-ylamine] |
